The test system of this assay is active lesions (interdigital dermatitis or hairy warts).

`O=S(=O)([O-])[O-].[Cu+2]` [copper sulfate]: the “lesions per week, average” value (50 gallons water + 25 lbs copper sulfate per 400 cows, once per day, 4 days per week, 1,600 cow dairy) came out at 22 lesions per week. Where the note is “same regimen, 8 week record”, the “lesions per week, high” value worked out at 36 and the “lesions per week, low” value was 13.

Source of the values: patent US7841299B2, “Method and apparatus for applying hoof care, sanitizing, or treatment solutions to the feet or hooves of animals” (Jot Holdings, LLC, priority 2007, dated 2010).
